How the values were obtained:
Type in all cases: in vivo, male Whistar rats
[1] = test system: parasympathetic nerve (vagus nerve) innervating the pancreas; experiment: Test Example 1: neural activity of distal branches of vagus (parasympathetic) nerve for the pancreas (PVNA) after intragastric administration; settings: urethane-anesthetized rats, measured for 60 minutes, percentage of value at 0 minutes (100%), FIG. 2
Experimental: (§1) The effect of the intragastric administration of the compound represented by Structural Formula (1) on the activity of the parasympathetic nerve innervating the stomach, the pancreas, or the intestine was tested in the following manner. For the experiment, male Whistar rats (approximately 9 weeks old) each having a body weight of approximately 300 g were kept in a 24° C. thermostatic animal room for 1 week or longer with a 12-hour light-dark cycle (lighting from 8:00 to 20:00). On the day of the experiment, the rats were fasted for 3 hours, followed by anesthetizing with urethane. A cannula for intragastric administration was inserted into each of the rats, and then distal branches of the parasympathetic nerve (vagus nerve) innervating the stomach, the pancreas, or the intestines (small intestine and large intestine) were lifted with a silver electrode, and the electrical activity thereof was measured. […] In addition, as a control, water serving as a solvent was intragastrically administered using the cannula at a dose of 0.5 mL/300 g of body weight, and the change in the neural activity of the distal branches of the above parasympathetic nerves was measured electrophysiologically for 60 minutes. […]

[2] = test system: parasympathetic nerve (vagus nerve) innervating the stomach; experiment: Test Example 1: neural activity of distal branches of vagus (parasympathetic) nerve for the stomach (GVNA) after intragastric administration; settings: urethane-anesthetized rats; intragastric 0.015 mg/0.5 mL/300 g of body weight; measured for 60 minutes; percentage of value at 0 minutes (100%); FIG. 1
Experimental: as §1

[3] = test system: parasympathetic nerve (vagus nerve) innervating the intestines (small intestine and large intestine); experiment: Test Example 1: neural activity of distal branches of vagus (parasympathetic) nerve for the intestine (IVNA) after intragastric administration; settings: urethane-anesthetized rats, measured for 60 minutes, percentage of value at 0 minutes (100%), FIG. 3
Experimental: as §1

[4] = intragastric 0.00015 mg/0.5 mL/300 g of body weight
[5] = intragastric 0.0015 mg/0.5 mL/300 g of body weight

COc1cc(CCC(=O)O)ccc1O [3-(4-hydroxy-3-methoxyphenyl)propionic acid]
pancreatic vagal nerve activity (PVNA) value compared with the water group [1, 4]: PVNA value higher than the PVNA value of the group to which water serving as the solvent was administered | pancreatic vagal nerve activity (PVNA) value compared with the water group [1, 5]: PVNA value higher than the PVNA value of the group to which water serving as the solvent was administered | gastric vagal nerve activity (GVNA) value compared with the water group [2]: GVNA value higher than the GVNA value of the group to which water serving as the solvent was administered | intestinal vagal nerve activity (IVNA) value compared with the water group [3, 4]: IVNA values higher than the IVNA value of the group to which water serving as the solvent was administered | intestinal vagal nerve activity (IVNA) value compared with the water group [3, 5]: IVNA values higher than the IVNA value of the group to which water serving as the solvent was administered
